As a reminder, the kinact is the maximal first-order rate at which the target is inactivated. In general, EC50 refers to the concentration needed to bring the measured effect to its halfway point. Read a low EC50 as an effect from little substance.

These results are taken from US20210332024A1, “MODULATORS OF PIN1 ACTIVITY AND USES THEREOF” (Yeda Research and Development Co. Ltd., priority 2019, published 2021).

One test has as its target GST-Pin1 (Homo sapiens, UniProt Q13526). Description: Fluorescence polarization (FP) competition assay. Format: binding. The protocol:
Binding affinity to Pin1 was determined using a fluorescence polarization assay to assess competition with an N-terminal fluorescein-labeled peptide (Bth-D-phosThr-Pip-Nal), which was obtained from JPT Peptide Technologies and Proteintech Group. The indicated concentrations of candidate compound were pre-incubated for 12 hours at 4° C. with a solution containing 250 nM glutathione S-transferase (GST)-Pin1, 5 nM of fluorescein-labeled peptide probe, 10 μg/ml bovine serum albumin, 0.01% Tween-20 and 1 mM DTT (dithiothreitol) in a buffer of 10 mM HEPES, 10 mM NaCl and 1% glycerol (pH 7.4). Measurements of FP were performed in black 384-well plates (Corning) using an EnVision™ reader. Apparent Ki values (under the tested conditions) obtained from the FP assay results were derived from the Kenakin Ki equation:
Kenakin Ki=(Lb)(EC50)(Kd)/(Lo)(Ro)+Lb(Ro−Lo+Lb−Kd)
Sittampalam G. S. et al., Eli Lilly & Company and the National Center for Advancing Translational Sciences, 2004].
Covalent labeling of Pin1 was confirmed to translate into enzyme inhibition via a fluorescence polarization (FP) competition assay using a FITC-labeled substrate mimetic peptide inhibitor, as well as a chymotrypsin-coupled PPIase assay, using procedures described in Wei et al. [Nat Med 2015, 21:457-466].
The fluorescent polarization assay was performed in a dose-dependent and time-dependent manner, in order to further characterize the kinetic parameters of Pin1-3 binding to Pin1.
Background: In fluorescence polarisation assays a small probe gives low polarisation when free and higher when bound to something large.

For the next test, the system named is MDA-MB-231 cells. The test can be described thus: Cell viability assay (CellTiter-Glo). The settings on record: Homo sapiens; cell viability assay with MDA-MB-231 cells. Format: cell-based. Here is the method: MDA-MB-231 cells grew in DMEM medium supplemented with 10% FCS (fetal calf serum), 1% PS (penicillin-streptomycin) and 1% L-glutamine (all from Biological Industries). Exclusion of mycoplasma contamination was monitored and conducted by test with MycoAlert™ kit (Lonza). Cells were trypsinized and counted, and 1000 cells/well were plated in 50 μl of growth medium into 384-well white TC plates (Greiner) using Multidrop™ 384 (Thermo Scientific) Washer Dispenser II. The number of viable cells was monitored using CellTiter-Glo® Luminescent kit (Promega) in accordance with the manufacturer's protocol. Luminescence was measured using luminescence module of PHERAstar™ FS plate reader (BMG Labtech). Data analysis was performed using GeneData 12 analytic software. Assay ready plate preparation: Compounds transferred into black microplates (Greiner 784900) using Labcyte Echo® acoustic dispensing technology. Assay ready plates were then sealed with heat seals. If not used immediately, plates were frozen at −20° C. and held in polypropylene boxes with silica-gel desiccant.
Exemplary Pin1-binding compounds were also tested for non-selective cytotoxicity in a viability assay against IMR90 lung fibroblasts.

Test [1] concerns the target T1, Pin1 (Mus musculus, UniProt Q9QUR7).
T1 construct: from tissue; host or cells: mouse spleen
Description: In vivo Pin1 engagement, spleen competition pull-down. Further details: species or system mice. The protocol:
The in vivo engagement of Pin1 by Pin1-3 was then assessed using Pin1-3-DTB. Mice were treated with either vehicle, 10 mg/kg or 20 mg/kg Pin1-3 by oral gavage (QD) for 3 days, followed by lysis of the spleens for a competition pull-down experiment.

Test [2] concerns 8988T pancreatic adenocarcinoma cells. The test can be described thus: Prolonged-treatment cell growth, wild-type 8988T. Type of test: cell-based. The settings on record: 1 μM, 6-8 days. Here is the method:
(§1) The ability of Pin1-3 treatment to induce more pronounced anti-proliferative effects after prolonged treatment (6-8 days) was then assessed. In order to ensure that target engagement was maintained for the duration of the experiment, Pin1-3 was replenished in fresh media every 48 hours.
The effect of Pin1-binding compounds on 8988T pancreatic adenocarcinoma cells was assessed by incubating cells with 1 μM Pin1-3, and evaluating cell growth relative to cells incubated with vehicle (DMSO) alone. In order to confirm that the effect of Pin1-3 is mediated by Pin1, the experiment was repeated using Pin1 knockout cells.

Test [3] concerns PC3 prostate cancer cells. The test can be described thus: Prolonged-treatment cell growth, PC3. Type of test: cell-based. The settings on record: PC3, 1 or 2.5 μM. The protocol:
as §1

The subject of test [4] is Kuramochi ovarian carcinoma cells. The test can be described thus: Prolonged-treatment cell growth, Kuramochi. Type of test: cell-based. The settings on record: 1 or 2.5 μM. Here is the method: as §1
For test [5], the system named is Pin1-knockout pancreatic cancer cells. Description: Organoid growth in Matrigel, Pin1-knockout PATU-8988T. Conditions: 1 μM, 9 days. Format: cell-based. The protocol: As three dimensional (3D) organoid models can reflect in vivo results better than monolayer cell culture [Baker et al., Trends Cancer Res 2016, 2:176-190], the anti-proliferative activity of Pin1-3 in PATU-8988T was further evaluated in wild-type or Pin1-knockout cells grown as organoids in Matrigel™ droplets. Cells were treated for 9 days with Pin1-3 (or Pin1-3-AcA or vehicle as a control), replenishing the compound in media every 3 days.

For test [6], the target named is T2, Pin1 (Homo sapiens, UniProt Q13526).
T2 construct: endogenous in cells; host or cells: patient-derived PDAC cells
The test can be described thus: Pin1 levels in PDAC cells (Western blot). Type of test: cell-based. Conditions: treated for 3 days. Here is the method:
Pancreatic ductal adenocarcinoma (PDAC) cells (derived from a human patient) were treated with Pin1-3 for 3 days. PDAC organoids were treated with Pin1-3 for 7 days (day 7 to day 14).
A general note: In western blotting, separated proteins are transferred to a membrane and probed.

GST-Pin1, sequence (Q13526 whole entry): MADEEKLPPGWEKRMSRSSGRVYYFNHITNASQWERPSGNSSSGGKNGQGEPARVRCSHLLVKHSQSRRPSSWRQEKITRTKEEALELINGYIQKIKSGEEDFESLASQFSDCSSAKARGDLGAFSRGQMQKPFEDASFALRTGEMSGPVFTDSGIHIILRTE
T1 sequence (Q9QUR7 whole entry): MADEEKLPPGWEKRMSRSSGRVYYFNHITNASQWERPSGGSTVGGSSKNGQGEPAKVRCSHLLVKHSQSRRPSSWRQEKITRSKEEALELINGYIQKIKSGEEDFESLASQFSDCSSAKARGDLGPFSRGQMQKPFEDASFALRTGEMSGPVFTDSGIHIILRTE
T2 sequence (Q13526 whole entry): as the sequence (Q13526 whole entry) above

Regarding `CC(C)(C)CN(C(=O)CCl)C1CCS(=O)(=O)C1` (centres unmarked) [Pin1-3, 2-chloro-N-(sulfolan-3-yl)-N-neopentylacetamide], at GST-Pin1 (FP assay, competition with fluorescein-labeled peptide, 250 nM GST-Pin1, read-out: Ki (apparent)), the Ki came out at 110 nM. The kinact at GST-Pin1 (dose-dependent and time-dependent FP assay) is 0.0005 s⁻¹. In addition, on GST-Pin1 (dose-dependent and time-dependent FP assay, read-out: Kinact/Ki (apparent)), the kinact/KI turned out to be 29000 M⁻¹ s⁻¹. The same compound returned an EC50 in the test with MDA-MB-231 cells of more than 25 µM. Also, the “Mice with effective Pin1 engagement” value at Pin1 [1] (10 mg/kg oral gavage QD for 3 days) is given as 1 of the 3 mice; on Pin1 [1] (20 mg/kg oral gavage QD for 3 days), “all 3 mice”. For the same compound, the “Cell viability / growth” value in test [2] is given as “reduced pancreatic cancer cell viability”. In addition, the Cell growth entry in test [3] and in test [4] was “long-term inhibition” in each case. In addition, the Organoid growth result in test [5] was “no effect”. Also, at Pin1 [6], the “Pin1 levels in PDAC cells” value was “reduced Pin1 in PDAC cells in a dose-dependent manner”.
